Reference: patent US12532889B2, “Herbicidal compositions comprising glufosinate” (BASF SE, priority 2023, dated 2026)

Assays:
Test in all cases: Post-emergence application in field trials (Example A)
Format in all cases: in vivo
[1] = system: GLXMA (Glycine max); conditions: 21 DAT; A-1 12.5 g ai/ha; growth stage 13; height 5-10 cm
Procedure, shortened: (§1)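 Percent weed damage (0 = none, 100 = complete destruction), scored against untreated controls at the given DAT, is reported for solo and combined applications. Weeds, naturally occurring or seeded on field plots, were treated after emergence. Colby's formula supplied the additive expectation.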

[2] = system: DIGHO (Digitaria horizontalis); conditions: Table 1.4, DIGHO growth stage 24, 14 DAT, water 200 l/ha
Procedure, shortened: as §1

[3] = system: AVESG (Avena strigosa); conditions: Table 1.6; AVESG growth stage 11-21, height 5-10 cm; A-1 25, B-2 400 g ai/ha; 14 DAT; water 200 l/ha
Procedure, shortened: as §1

[4] = system: ERISS (Erigeron sp.); conditions: Table 1.8, ERISS height 30-50 cm, 14 DAT, water 200 l/ha
Procedure, shortened: as §1

[5] = system: BOILF (Spermacoce latifolia); conditions: Table 1.16, A-1 25, B-2 400 g ai/ha, 21 DAT, water 200 l/ha
Procedure, shortened: as §1

[6] = system: HORVS (Hordeum vulgare (spring barley)); conditions: Table 3.1, HORVS volunteer barley, growth stage 22-24, height 32-35 cm, 28 DAT, water 100 l/ha
Procedure, shortened: as §1

[7] = system: AVEFA (Avena fatua); conditions: Table 3.1; AVEFA growth stage 22-24, height 18-29 cm; A-1 12.5, B-2 500 g ai/ha; 28 DAT; water 100 l/ha
Procedure, shortened: as §1

[8] = system: CYPES (Cyperus esculentus); conditions: 21 DAT, water 140 l/ha
Procedure, shortened: as §1

[9] = system: CYPKH (Cyperus kyllingia var. humilis); conditions: Table 5.4; CYPKH growth stage 76-77, height 13-14 cm; A-1 25, B-6 252 g ai/ha; 28 DAT; water 400 l/ha
Procedure, shortened: as §1

[10] = system: POLCO (Polygonum convolvulus); conditions: Table 3.2, A-1 12.5, B-2 500 g ai/ha, 14 DAT, water 100 l/ha
Procedure, shortened: as §1

[11] = system: SPCHI (Spermacoce hispida); conditions: Table 1.2, SPCHI height 25 cm, 14 DAT, water volume 100 l/ha, 0.5% v/v MSO
Description: (§2) In the examples below, using the method of S. R. Colby (1967) “Calculating synergistic and antagonistic responses of herbicide combinations”, Weeds 15, p. 22ff., the value E, which is expected if the activity of the individual active compounds is only additive, was calculated:
(§3) [formula] • where • X=percent activity using active herbicide A at an application rate a; • Y=percent activity using active herbicide B (e.g. glufosinate) at an application rate b; • E=expected activity (in %) by A+B at application rates a+b.
(§4) If the value found experimentally is higher than the value E calculated according to Colby, a synergistic effect is present.
(§5) On field test sites, natural weed infestation or seeded weeds were treated post-emergence of the weeds.
(§6) In the field trials, the weeds were treated as indicated below.
(§7) In the following experiments, the herbicidal activity for the individual herbicidal compositions (solo and mixture applications) was assessed at the indicated days after treatment (DAT). The assessments for the damage on undesired weeds caused by the composition was carried out using a scale from 0 to 100%, compared to the untreated control plants. Here, 0 means no damage and 100 means complete destruction of the plants.
(§8) Post-emergence application of Herbicide A-1 (A-1) and glufosinate ammonium (B-2) in Field Trials:
(§9) Herbicide A-1 (50 g/l), glufosinate ammonium (200 g/l) and optional herbicide C were, together with addition of 0.5% v/v MSO (methylated seed oil) as adjuvant, formulated in water as distribution medium as indicated and sprayed with commercial flat fan nozzles.

[12] = system: CYPDI (Cyperus difformis); conditions: CYPDI height 25 cm
Description: as §2, §3, §4, §5, §6, §7, §8, §9

[13] = system: ELEIN (Eleusine indica)
Description: as §2, §3, §4, §5, §6, §7, §8, §9

[14] = system: DIGIN = TRCIN (Digitaria insularis)
Description: as §2, §3, §4, §5, §6, §7, §8, §9

[15] = system: EPHHI (Euphorbia hirta); conditions: Table 1.2; EPHHI height 25 cm; A-1 solo 25 g ai/ha; 14 DAT; water volume 100 l/ha; 0.5% v/v MSO
Description: as §2, §3, §4, §5, §6, §7, §8, §9

CCOC(=O)COc1ccccc1Oc1nc(-n2c(=O)cc(C(F)(F)F)n(C)c2=O)c(F)cc1Cl [A-1, ethyl 2-[2-[[3-chloro-5-fluoro-6-[3-methyl-2,6-dioxo-4-(trifluoromethyl)pyrimidin-1-yl]-2-pyridyl]oxy]phenoxy]acetate]
% herbicidal activity [1]: 90%
% herbicidal activity ([2]; A-1 25, B-2 400 g ai/ha): 57%
% herbicidal activity ([2]; A-1 50, B-2 400 g ai/ha): 65%
% herbicidal activity [3]: 78%
% herbicidal activity ([4]; A-1 25, B-2 400 g ai/ha): 13%
% herbicidal activity ([4]; A-1 50, B-2 400 g ai/ha): 18%
% herbicidal activity [5]: 72%
% herbicidal activity ([6]; A-1 12.5, B-2 500 g ai/ha): 40%
% herbicidal activity ([6]; A-1 18, B-2 500 g ai/ha): 85%
% herbicidal activity [7]: 70%
% herbicidal activity ([8]; Table 4.2, A-1 25, B-2 655 g ai/ha): 22%
% herbicidal activity ([8]; Table 4.2, A-1 50, B-2 655 g ai/ha): 42%
% herbicidal activity [9]: 61%
% herbicidal activity [10]: 90%
% herbicidal activity ([11]; A-1 solo 25 g ai/ha): 40%
% herbicidal activity ([11]; A-1 solo 50 g ai/ha): 50%
% herbicidal activity ([12]; Table 1.15, A-1 25, B-2 400 g ai/ha, 21 DAT, water 100 l/ha): 50%
% herbicidal activity ([12]; Table 1.2, A-1 solo 25 g ai/ha, 14 DAT, water volume 100 l/ha, 0.5% v/v MSO): 52%
% herbicidal activity ([12]; Table 1.2, A-1 solo 50 g ai/ha, 14 DAT, water volume 100 l/ha, 0.5% v/v MSO): 60%
% herbicidal activity ([13]; Table 1.10, ELEIN growth stage 23-25, height 3-5 cm, A-1 25, B-2 400 g ai/ha, 20 DAT, water 200 l/ha): 82%
% herbicidal activity ([13]; Table 1.1, ELEIN growth stage 24, A-1 solo 25 g ai/ha, 14 DAT, water volume 100 l/ha, 0.5% v/v MSO): 75%
% herbicidal activity ([13]; Table 1.14, ELEIN growth stage 24, A-1 25, B-2 400 g ai/ha, 21 DAT, water 100 l/ha): 58%
% herbicidal activity ([13]; Table 1.15, ELEIN height 25 cm, A-1 25, B-2 400 g ai/ha, 21 DAT, water 100 l/ha): 50%
% herbicidal activity ([13]; Table 1.15, ELEIN height 25 cm, A-1 50, B-2 400 g ai/ha, 21 DAT, water 100 l/ha): 60%
% herbicidal activity ([13]; Table 1.18, ELEIN growth stage 24, A-1 25, B-2 400 g ai/ha, 21 DAT, water 200 l/ha): 67%
% herbicidal activity ([13]; Table 1.18, ELEIN growth stage 24, A-1 50, B-2 400 g ai/ha, 21 DAT, water 200 l/ha): 82%
% herbicidal activity ([13]; Table 1.21, ELEIN growth stage 24, A-1 25, B-2 400 g ai/ha, 21 DAT, water 200 l/ha): 68%
% herbicidal activity ([13]; Table 1.21, ELEIN growth stage 24, A-1 50, B-2 400 g ai/ha, 21 DAT, water 200 l/ha): 73%
% herbicidal activity ([13]; Table 1.4, ELEIN growth stage 24, A-1 50, B-2 400 g ai/ha, 14 DAT, water 200 l/ha): 88%
% herbicidal activity ([13]; Table 1.9, ELEIN growth stage 23-25, height 3-5 cm, A-1 25, B-2 400 g ai/ha, 20 DAT, water 100 l/ha): 91%
% herbicidal activity ([14]; Table 1.13, DIGIN height 20-30 cm, A-1 50, B-2 400 g ai/ha, 21 DAT, water 100 l/ha): 30%
% herbicidal activity ([14]; Table 1.17, DIGIN height 20-30 cm, A-1 50, B-2 400 g ai/ha, 21 DAT, water 200 l/ha): 30%
% herbicidal activity ([14]; Table 1.19, DIGIN height 20-30 cm, A-1 50, B-2 400 g ai/ha, 21 DAT, water 200 l/ha): 30%
% herbicidal activity ([14]; Table 1.20, DIGIN height 60-80 cm, A-1 50, B-2 400 g ai/ha, 21 DAT, water 200 l/ha): 55%
% herbicidal activity ([14]; Table 1.22, DIGIN in tillering stage, height 5-15 cm, A-1 50, B-2 400 g ai/ha, 21 DAT, water 200 l/ha): 57%
% herbicidal activity ([14]; Table 1.22, DIGIN in tillering stage, height 5-15 cm, A-1 50, B-2 600 g ai/ha, 21 DAT, water 200 l/ha): 57%
% herbicidal activity ([14]; Table 1.23, DIGIN growth stage 16-18, height 15-25 cm, A-1 50, B-2 400 g ai/ha, 21 DAT, water 200 l/ha): 57%
% herbicidal activity ([14]; Table 1.23, DIGIN growth stage 16-18, height 15-25 cm, A-1 50, B-2 600 g ai/ha, 21 DAT, water 200 l/ha): 57%
% herbicidal activity ([14]; Table 1.24, DIGIN growth stage 67, height 100 cm, A-1 50, B-2 400 g ai/ha, 21 DAT, water 200 l/ha): 7%
% herbicidal activity ([14]; Table 1.24, DIGIN growth stage 67, height 100 cm, A-1 50, B-2 600 g ai/ha, 21 DAT, water 200 l/ha): 7%
% herbicidal activity ([14]; Table 1.25, DIGIN in tillering stage, height 8-20 cm, A-1 50, B-2 400 g ai/ha, 21 DAT, water 200 l/ha): 53%
% herbicidal activity ([14]; Table 1.25, DIGIN in tillering stage, height 8-20 cm, A-1 50, B-2 600 g ai/ha, 21 DAT, water 200 l/ha): 53%
% herbicidal activity ([14]; Table 1.26, DIGIN in tillering stage, height 50-70 cm, A-1 50, B-2 400 g ai/ha, 21 DAT, water 200 l/ha): 55%
% herbicidal activity ([14]; Table 1.26, DIGIN in tillering stage, height 50-70 cm, A-1 50, B-2 600 g ai/ha, 21 DAT, water 200 l/ha): 55%
% herbicidal activity ([14]; Table 1.3, DIGIN height 60-80 cm, A-1 25, B-2 400 g ai/ha, 14 DAT, water 200 l/ha): 37%
% herbicidal activity ([14]; Table 1.3, DIGIN height 60-80 cm, A-1 50, B-2 400 g ai/ha, 14 DAT, water 200 l/ha): 60%
% herbicidal activity ([14]; Table 1.5, DIGIN growth stage 16-18, height 15-25 cm, A-1 50, B-2 400 g ai/ha, 14 DAT, water 200 l/ha): 62%
% herbicidal activity ([14]; Table 1.5, DIGIN growth stage 16-18, height 15-25 cm, A-1 50, B-2 600 g ai/ha, 14 DAT, water 200 l/ha): 62%
% herbicidal activity ([14]; Table 1.7, DIGIN height 50-70 cm, tillering stage, A-1 solo 50 g ai/ha, 14 DAT, water volume 200 l/ha, 0.5% v/v MSO): 42%
% herbicidal activity [15]: 50%
